# What was measured:
# [1] = test system: balloon-injured site of the abdominal aorta blood vessel; experiment: PDT treatment in rabbit model with arterial injury (balloon catheter), pathological study (Example 1); type: in vivo; details: 2.5 mg/kg i.v., laser 664 nm, 50 or 100 J/cm^2, optical fiber in inflated 2F balloon catheter
# Experimental: Mono-L-aspartylchlorin e6 tetrasodium salt (NPe6) was intravenously administered at a dose of 2.5 mg/kg to a rabbit weighing about 4 kg. A commercially available 2F balloon catheter was immediately then inserted through the femoral artery into the abdominal aorta of rabbit. Thereafter, there are repeated operations of drawing out from the blood vessel the balloon catheter with the inflated balloon, inserting the balloon catheter again into the blood vessel, and drawing out the balloon catheter with the inflated balloon, whereby a rabbit model with an arterial injury was produced. This method for producing the rabbit model having the arterial injury at the blood vessel inner wall was in accordance with the method of Hsiang et al. (see Ann. Vasc. Surg., Vol.9, p.80-86, 1995). At the end of 3 hours after the administration of NPe6, an optical fiber for irradiation of laser (made of an acrylic polymer filament having an external diameter of 0.5 mm and provided with the emitter part of 15mm in length) was inserted into the hollow hole of the 2F balloon catheter which had been inserted in and kept remained at the balloon-injured site of the abdominal aorta blood vessel. The balloon of the catheter was then inflated. Laser light of 664 nm wavelength was passed into and transmitted through the optical fiber to make the laser light to irradiate the abdominal artery at the balloon-injured site, and thereby to carry out the PDT treatment of said site at a laser fluence of 50 or 100 J/cm^2. The laser (of the wavelength of 664 nm) used was emitted from a laser-generating source of semi-conductor type known for PDT. At the respective ends of four days, two weeks and four weeks after the above PDT treatment so made, the site having received the PDT treatment was pathologically studied.
# [2] = test system: intimal thickening induced at the balloon-intervented and injured site of blood vessel; experiment: Suppressive effect of PDT treatment on intimal thickening in rabbit model with arterial injury, image analysis of neo-intima and tunica media areas (Example 2); type: in vivo; details: 2.5 mg/kg i.v., laser 664 nm 3 hours after administration, two weeks after PDT; for Inhibition rate (%): versus untreated group
# Experimental: Mono-L-aspartylchlorin e6 tetrasodium salt was intravenously administered at a dose of 2.5 mg/kg to three rabbits each weighing about 4 kg. […] The neo-intima (9) had newly been produced from the inner side of the tunica media (8) due to the injury as induced by the balloon-intervention. At the end of three hours after the administration of mono-L-aspartylchlorin e6 tetrasodium salt, a device comprising an optical fiber for the irradiation of laser was inserted in the blood vessel of rabbit having the intimal thickening, to arrive at the balloon-injured site of the blood vessel. In order to estimate in comparison the achievable suppressive effects of the PDT treatments against the vascular restenosis, the above test procedures were conducted with employing two different types of the laser-irradiating devices comprising the optical fiber for the irradiation of laser, a first one type of which two different devices was such a laser-irradiating device that comprised an optical fiber as integrated with a balloon catheter and that is shown in Figure 1 of the appended drawing. The other type of the laser-irradiating device employed was comprising simply the conventional type of cylindrical optical fiber. In the tests, either one of these two different types of the laser-irradiating devices containing an optical fiber was inserted into the abdominal aorta under test. Under roentgenoscopy, an X-ray-shielding marker which had been provided in the laser-irradiating optical fiber so inserted was observed as a guide. This guide was used so that the position of the optical fiber device as inserted could be adjusted so as to be located in a position optimal to make the laser to irradiate selectively just the balloon-injured site of the abdominal aorta under test. Then, the irradiation of the laser through said optical fiber was carried out at a laser fluence of 50 or 100 J/cm^2 by means of a semiconductor generator for generating the laser of a wavelength of 664 nm. […] From the photographies of showing the traverse cross-section of histopathologically stained test specimens as collected from the above PDT-treated site of the blood vessel, the area of the tunica media and the area of the neo-intima of the test specimens of the blood vessel under test were measured by an image analyzer. The ratio of the area of the tunica media to the area of the neo-intima of the blood vessel specimens was calculated. […]
# [3] = conventional type of cylindrical optical fiber device, 100 J/cm^2
# [4] = optical fiber device integrated with the balloon catheter, 50 J/cm^2
structure (smiles),measurement,setting,value
"C=Cc1c(C)c2cc3nc(c(CC(=O)N[C@@H](CC(=O)[O-])C(=O)[O-])c4[nH]c(cc5nc(cc1[nH]2)C(C)=C5CC)c(C)c4C(=O)[O-])[C@@H](CCC(=O)[O-])[C@@H]3C.[Na+].[Na+].[Na+].[Na+] [NPe6, Mono-L-aspartylchlorin e6 tetrasodium salt]",injuries in the regions of the blood vessel participating in the entire construction of the blood vessel (pathological findings),[1]; 2 and 4 weeks after PDT,no injuries were developed
same,intimal thickening as produced by the vascular neo-intima formed at the PDT-treated site (pathological findings),[1]; 2 and 4 weeks after PDT,inhibited
same,cells of the tunica media of the blood vessel at the PDT-treated site (pathological findings),[1]; four days after PDT,destroyed in a broad region of ranging from the inner wall side towards the outer wall side of the blood vessel
same,Ratio of area of neointima to area of tunica media in blood vessel,[2]; [3],0.87±0.37
same,Inhibition rate (%),[2]; [3],28.7%
same,Ratio of area of neointima to area of tunica media in blood vessel,[2]; [4],0.68±0.21
same,Inhibition rate (%),[2]; [4],44.3%
